Assay results reported in patent publication US20110224256A1, “T[…] THE TREATMENT OF PSYCHIATRIC DISORDERS” (priority 2008, published 2011).
Structures can show the parent of a compound that is named as a salt.

How the values were obtained:
[1] = tested on: Sprague-Dawley male rats; assay: rCBV by MRI with MION contrast after MPH challenge in adulthood; type: in vivo
Description: MRI was conducted in two groups of animals (MPH-treated or VEH treated; n=7) at approximately 60 days old. Functional changes in rCBV were determined by drug-induced alterations following paramagnetic contrast agent […] iron oxide nanocolloid (MION) in anesthetized treated subjects (Chen et al., 2001). All experiments were performed at 2 T or 4.7 T on a GE Omega CSI instrument (GE, Fremont, Calif., USA) using a home-built surface coil for transmit-receive and immobilization of the head using a rigid plastic head holder. All VEH/MPH subjects were matched for scanner strength to control for any possible differences due to magnet strength (Mandeville et al., Magn. Reson. Med., 52:1272-1281 (2004)). […]
According to standard methods, 20 baseline images were collected, followed by a 10 mg/kg injection of MION (an iron particle-based contrast agent that produces long-lasting intravascular contrast for T2* contrast measures) and an additional 20 baseline images. […] Images were measured serially with a temporal resolution of 2 min.
All functional images within each condition were registered onto the same standard brain template to facilitate comparisons between the experimental groups. Registration parameters were determined for each functional scan using a single full-brain image set that is the average of all baseline time points prior to drug injection. […]

[2] = tested on: dopamine receptors D1, D2 long, D4 and D5 mRNA; assay: D1, D2 long, D4 and D5 receptor mRNA by Q-PCR after juvenile MPH exposure; type: in vivo, Sprague-Dawley rats; settings: MPFCx, 25 days after cessation of MPH, P>0.1

Structure (SMILES): COC(=O)C(c1ccccc1)C1CCCCN1 (stereo not drawn) [MPH, d,l-Methylphenidate HCl]
- rCBV change after MPH challenge in adulthood ([1]; MPFCx, juvenile MPH 2 mg/kg twice daily P20-P35 vs VEH-treated, 2 mg/kg i.v. MPH challenge): significantly increased
- enduring effects of juvenile exposure on rCBV ([1]; dorsolateral PFCx or caudate putamen, juvenile MPH exposure): no significant enduring effects
- changes in other dopamine receptor subtype mRNA (D1, D2 long, D4, D5) [2]: No other significant changes
